The values that follow are results of earlier work, collected in US20100310474A1, “PROTEIN CAGES FOR THE DELIVERY OF MEDICAL IMAGING AND THERAPEUTIC AGENTS” (MONTANA STATE UNIVERSITY, priority 2002, published 2010).

The test system of one data set is tumor cells. The conditions noted are these: free peptide.
For data set [1], the system named is experimental tumor lung colonization. The conditions noted are these: free peptide.
In a further data set the test system is tumor angiogenesis. The conditions noted are these: mice.
For another data set, the system named is platlets and neutrophils. The conditions noted are these: cells bearing 67 kDa LBP.

Take `Cc1ccc(C(=O)Nc2ccc(S(=O)(=O)O)c3cc(S(=O)(=O)O)cc(S(=O)(=O)O)c23)cc1NC(=O)c1cccc(NC(=O)Nc2cccc(C(=O)Nc3cc(C(=O)Nc4ccc(S(=O)(=O)O)c5cc(S(=O)(=O)O)cc(S(=O)(=O)O)c45)ccc3C)c2)c1` [suramin]: the “cytotoxic effects on tumor cells” value in the data set on tumor cells in culture was “cytotoxic effects”.

Consider CDPGYIGSRC [peptide 11], for which, in the data set on tumor cells, the “invasion of basement membranes by tumor cells” value is on record as “effectively blocks”. Besides, in data set [1], the “experimental tumor lung colonization” value is recorded as “reduces”. Moreover, in the data set with tumor angiogenesis, the tumor angiogenesis result is “inhibits”. For the same molecule, the “toxic effect on platelets and neutrophils” value in the data set with platlets and neutrophils is on record as “no toxic effect”.
